For ten molecules, logP results are on record in the SangsterLogP compilation.

The logP is the decadic logarithm of the partition coefficient of the neutral form, usually between octanol and water. Lower therefore signals lower lipophilicity.

This data set in a line: method code SF-AS, from DOI: 10.1016/0223-5234(92)90004-k.
In turn, `COc1cc(OS(C)(=O)=O)ccc1-c1cn2cccnc2n1` yielded a lipophilicity (logP) of 1.05.
Then `COc1cc(NS(C)(=O)=O)ccc1-c1cn2cccnc2n1`, with 0.72.
Next, `COc1ccc(-c2nc3ncccc3[nH]2)c(OC)c1`: 2.56.
Next, `COc1cc(C(N)=O)ccc1-c1nc2cnccc2[nH]1`: 1.18; `COc1cc(SC)ccc1-c1cn2cccnc2n1`: 2.44; `COc1cc(S(C)=O)ccc1-c1nc2ncc(N)cc2[nH]1` (stereo not given): 0.33.
On to `COc1cc(C(N)=O)ccc1-c1cn2cccnc2n1`, for which the log partition coefficient (logP) came out at 0.7.
Next, `COc1ccc(-c2cn3cccnc3n2)c(OC)c1`: 1.94; `COc1ccc(-c2cn3cc(N)cnc3n2)c(OC)c1`: 1.68.
Next, `COc1ccc(-c2nc3ncc(N)cc3[nH]2)c(OC)c1`: 1.62.
